The record followed here is PubChem BioAssay AID1259407 (Chemical Carcinogenesis Research Information System (CCRIS), 2018).

SMILES strings stand for the structures. Calls of active or inactive are those of the source. No rule for the calls is given here.

The series concerns CCRIS mutagenicity, Ames/micronucleus/aberration tests. Nature of the series: CCRIS mutagenicity studies.
Where [1] appears, read: Test System: AMES SALMONELLA TYPHIMURIUM, Strain/Indicator: TA98, Metabolic Activation: NONE, Method: STANDARD PLATE.
The mark [2] stands for this setting: Test System: AMES SALMONELLA TYPHIMURIUM, Strain/Indicator: TA98, Metabolic Activation: RAT, LIVER, S-9, AROCLOR 1254, Method: STANDARD PLATE.
Setting [3] is: Test System: AMES SALMONELLA TYPHIMURIUM, Strain/Indicator: TA100, Metabolic Activation: NONE, Method: STANDARD PLATE.
Where [4] appears, read: Test System: AMES SALMONELLA TYPHIMURIUM, Strain/Indicator: TA100, Metabolic Activation: RAT, LIVER, S-9, AROCLOR 1254, Method: STANDARD PLATE.
The mark [5] stands for this setting: Test System: AMES SALMONELLA TYPHIMURIUM, Strain/Indicator: TA1535, Metabolic Activation: NONE, Method: STANDARD PLATE.
Setting [6] is: Test System: AMES SALMONELLA TYPHIMURIUM, Strain/Indicator: TA1535, Metabolic Activation: RAT, LIVER, S-9, AROCLOR 1254, Method: STANDARD PLATE.
Setting [7] is: Test System: AMES SALMONELLA TYPHIMURIUM, Strain/Indicator: TA1537, Metabolic Activation: NONE, Method: STANDARD PLATE.
Where [8] appears, read: Test System: AMES SALMONELLA TYPHIMURIUM, Strain/Indicator: TA1537, Metabolic Activation: RAT, LIVER, S-9, AROCLOR 1254, Method: STANDARD PLATE.
[9] abbreviates: Test System: AMES SALMONELLA TYPHIMURIUM, Strain/Indicator: TA1538, Metabolic Activation: NONE, Method: STANDARD PLATE.
[10] abbreviates: Test System: AMES SALMONELLA TYPHIMURIUM, Strain/Indicator: TA1538, Metabolic Activation: RAT, LIVER, S-9, AROCLOR 1254, Method: STANDARD PLATE.
Where [11] appears, read: Test System: AMES SALMONELLA TYPHIMURIUM, Strain/Indicator: TA1535, Metabolic Activation: NONE, Method: PREINCUBATION
The mark [12] stands for this setting: Test System: AMES SALMONELLA TYPHIMURIUM, Strain/Indicator: TA1537, Metabolic Activation: NONE, Method: PREINCUBATION
Setting [13] is: Test System: AMES SALMONELLA TYPHIMURIUM, Strain/Indicator: TA1538, Metabolic Activation: NONE, Method: PREINCUBATION

On to `O=C(NC(=O)c1c(F)cccc1F)Nc1cc(Cl)c(Oc2ncc(C(F)(F)F)cc2Cl)c(Cl)c1`, for which the mutagenic call is “inactive; negative” under setting [1]; “inactive; negative” under setting [2]; “inactive; negative” under setting [3]; “inactive; negative” under setting [4]; “inactive; negative” under setting [5]; “inactive; negative” under setting [6]. For the same compound, the mutagenic call by setting is: under setting [7], “inactive; negative”; under setting [8], “inactive; negative”; under setting [9], “inactive; negative”; under setting [10], “inactive; negative”.
With `Cc1cccc2c1ccc1cc(C(C)C)ccc12`, the mutagenic call reads like this: under setting [3], “inactive; negative”; under setting [4], “inactive; negative”.
Consider `[B-]`, for which the mutagenic call runs as follows: (Test System: AMES SALMONELLA TYPHIMURIUM, Strain/Indicator: TA98, Metabolic Activation: NONE, Method: PREINCUBATION) “inactive; negative”; (Test System: AMES SALMONELLA TYPHIMURIUM, Strain/Indicator: TA98, Metabolic Activation: RAT LIVER S-9, PHENOBARBITAL AND BETA-NAPHTHOFLAVONE, Method: PREINCUBATION) “inactive; negative”; (Test System: AMES SALMONELLA TYPHIMURIUM, Strain/Indicator: TA100, Metabolic Activation: NONE, Method: PREINCUBATION) “inactive; negative”; (Test System: AMES SALMONELLA TYPHIMURIUM, Strain/Indicator: TA100, Metabolic Activation: RAT LIVER S-9, PHENOBARBITAL AND BETA-NAPHTHOFLAVONE, Method: PREINCUBATION) “inactive; negative”; under setting [11], “inactive; negative”; (Test System: AMES SALMONELLA TYPHIMURIUM, Strain/Indicator: TA1535, Metabolic Activation: RAT LIVER S-9, PHENOBARBITAL AND BETA-NAPHTHOFLAVONE, Method: PREINCUBATION) “inactive; negative”. Further, the mutagenic call was “inactive; negative” under setting [12]; “inactive; negative” (Test System: AMES SALMONELLA TYPHIMURIUM, Strain/Indicator: TA1537, Metabolic Activation: RAT LIVER S-9, PHENOBARBITAL AND BETA-NAPHTHOFLAVONE, Method: PREINCUBATION); “inactive; negative” under setting [13]; “inactive; negative” (Test System: AMES SALMONELLA TYPHIMURIUM, Strain/Indicator: TA1538, Metabolic Activation: RAT LIVER S-9, PHENOBARBITAL AND BETA-NAPHTHOFLAVONE, Method: PREINCUBATION); “inactive; negative” (Test System: E.COLI, Strain/Indicator: WP2UVRA, Metabolic Activation: NONE, Method: PREINCUBATION); “inactive; negative” (Test System: E.COLI, Strain/Indicator: WP2UVRA, Metabolic Activation: RAT LIVER S-9, PHENOBARBITAL AND BETA-NAPHTHOFLAVONE, Method: PREINCUBATION).
On to `C[n+]1c2ccccc2cc2ccc(N)cc21`, for which the mutagenic call was “inactive; negative” under setting [11]; “inactive; negative” (Test System: AMES SALMONELLA TYPHIMURIUM, Strain/Indicator: TA1535, Metabolic Activation: RAT, LIVER, S-9, TETRACHLOROBIPHENYL, Method: PREINCUBATION); “active; positive” under setting [12]; “active; positive” (Test System: AMES SALMONELLA TYPHIMURIUM, Strain/Indicator: TA1537, Metabolic Activation: RAT, LIVER, S-9, TETRACHLOROBIPHENYL, Method: PREINCUBATION); “inactive; negative” under setting [13]; “active; positive” (Test System: AMES SALMONELLA TYPHIMURIUM, Strain/Indicator: TA1538, Metabolic Activation: RAT, LIVER, S-9, TETRACHLOROBIPHENYL, Method: PREINCUBATION). Besides, the mutagenic call by setting is: (Test System: AMES SALMONELLA TYPHIMURIUM, Strain/Indicator: TA1977, Metabolic Activation: NONE, Method: PREINCUBATION) “active; positive”; (Test System: AMES SALMONELLA TYPHIMURIUM, Strain/Indicator: TA1977, Metabolic Activation: RAT, LIVER, S-9, TETRACHLOROBIPHENYL, Method: PREINCUBATION) “active; positive”; (Test System: AMES SALMONELLA TYPHIMURIUM, Strain/Indicator: TA1978, Metabolic Activation: RAT, LIVER, S-9, TETRACHLOROBIPHENYL, Method: PREINCUBATION) “inactive; negative”.
For `Clc1cc(Cl)nc(Cl)n1`, the mutagenic call was “inactive; negative” (Test System: AMES SALMONELLA TYPHIMURIUM, Strain/Indicator: TA98, Metabolic Activation: HAMSTER, LIVER, S-9, AROCLOR 1254, Method: STANDARD PLATE); “inactive; negative” under setting [1]; “inactive; negative” under setting [2]; “inactive; negative” (Test System: AMES SALMONELLA TYPHIMURIUM, Strain/Indicator: TA100, Metabolic Activation: HAMSTER, LIVER, S-9, AROCLOR 1254, Method: STANDARD PLATE); “inactive; negative” under setting [3]; “inactive; negative” under setting [4]. Besides, the mutagenic call by setting is: (Test System: AMES SALMONELLA TYPHIMURIUM, Strain/Indicator: TA1535, Metabolic Activation: HAMSTER, LIVER, S-9, AROCLOR 1254, Method: STANDARD PLATE) “inactive; negative”; under setting [5], “inactive; negative”; under setting [6], “inactive; negative”; (Test System: AMES SALMONELLA TYPHIMURIUM, Strain/Indicator: TA1537, Metabolic Activation: HAMSTER, LIVER, S-9, AROCLOR 1254, Method: STANDARD PLATE) “inactive; negative”; under setting [7], “inactive; negative”; under setting [8], “inactive; negative”. Also, the mutagenic call by setting is: (Test System: AMES SALMONELLA TYPHIMURIUM, Strain/Indicator: TA1538, Metabolic Activation: HAMSTER, LIVER, S-9, AROCLOR 1254, Method: STANDARD PLATE) “inactive; negative”; under setting [9], “inactive; negative”; under setting [10], “inactive; negative”; (Test System: Mouse lymphoma, Strain/Indicator: L5178Y (tk+/tk-), Metabolic Activation: None, Method: Suspension/plate) “active; inconclusive (previous evaluation positive)”; (Test System: Mouse lymphoma, Strain/Indicator: L5178Y (tk+/tk-), Metabolic Activation: Rat, Liver, S-9, Aroclor 1254, Method: Suspension/plate) “active; positive”.
